In US9381224B2, “Plant based formulation for the prevention and management of metabolic syndrome and cardiovascular disease mortality risk” (priority 2014, dated 2016):

Tested on: Metabolic Syndrome cases
Assay: Clinical study in diagnosed Metabolic Syndrome cases
Assay type: in vivo, human
Method: The study population consisted of 128 diagnosed Metabolic Syndrome cases (76 Men and 52 Women), aged 52.81±9.68 years at study entry. The cases were diagnosed as per criteria given by WHO for classification and diagnosis of Metabolic Syndrome.
After preliminary screening the subjects showing association with 3 or more than 3 above factors were selected. The clinical trial was conducted in three groups—
44 cases were treated with Ayurvedic formulation.
Body mass index (BMI) was calculated following formula {weight (kg)÷ height (m2)} and anthropometer was used for circumference measurement. Lipid profile including triglyceride was estimated by standard laboratory kits. TNF-[…], interleukin-6 was measured by ELISA kit, adiponectin by radioimmunoassay kit. CRP by kit for quantitative nephelometric determination of CRP in human serum or plasma by Turbox/Turbox analyzer and ELISA activity assay kit for Leptin level. Subjects suffering from any other disease known to affect the study parameters were excluded from the series. Upon recruitment all subjects gave informed written consent.

CCCCCCCCCCC[C@@H](C[C@@H]1OC(=O)[C@H]1CCCCCC)OC(=O)[C@H](CC(C)C)NC=O [Conventional drug, Orlistat]
HbA1c (After 3 months): 5.93% | PAI-1 (After 3 months): 37.42 ng/mL | tPA-1 (After 3 months): 19.45 ng/mL | Adiponectin (After 6 months): 7.39 µg/mL | Apolipo (B) (After 6 months): 152.87 mg/dL | Diastolic blood pressure (After 6 months): 86.24 mmHg | Endothelin (After 6 months): 988.73 pg/mL | Fasting blood glucose (After 6 months): 108.42 mg/dL | HDL-c (After 6 months): 43.02 mg/dL | HbA1c (After 6 months): 5.24% | Interleukin-6 (After 6 months): 2.12 pg/mL | LDL-c (After 6 months): 114.32 mg/dL | Leptin (After 6 months): 25.73 µg/L | PAI-1 (After 6 months): 32.98 ng/mL | Postprandial blood glucose (After 6 months): 179.45 mg/dL | Systolic blood pressure (After 6 months): 124.87 mmHg | TNF-α (After 6 months): 488.90 pg/mL | Total cholesterol (After 6 months): 216.92 mg/dL | Triglycerides (After 6 months): 287.93 mg/dL | hs CRP (After 6 months): 3.64 mg/L | tPA-1 (After 6 months): 18.46 ng/mL | CD36 (Gender F, After 3 months): 156.42 ng/mL | CD36 (Gender F, After 6 months): 155.90 ng/mL | CD36 (Gender F, Initial): 142.90 ng/mL | CD36 (Gender M, After 3 months): 173.64 ng/mL | CD36 (Gender M, After 6 months): 196.22 ng/mL | Adiponectin (Initial): 6.92 µg/mL | Apolipo (B) (Initial): 188.73 mg/dL | Diastolic blood pressure (Initial): 89.04 mmHg | Endothelin (Initial): 1286.93 pg/mL | Fasting blood glucose (Initial): 136.42 mg/dL | HDL-c (Initial): 41.62 mg/dL | HbA1c (Initial): 6.82% | Interleukin-6 (Initial): 2.25 pg/mL | LDL-c (Initial): 139.72 mg/dL | Leptin (Initial): 36.42 µg/L | PAI-1 (Initial): 40.12 ng/mL | Postprandial blood glucose (Initial): 231.68 mg/dL | Systolic blood pressure (Initial): 136.68 mmHg | TNF-α (Initial): 622.45 pg/mL | Total cholesterol (Initial): 247.90 mg/dL | Triglycerides (Initial): 354.86 mg/dL | hs CRP (Initial): 4.93 mg/L | tPA-1 (Initial): 21.23 ng/mL
